Measured values reported in PMC8170132, “Kinetics of Abacavir-Induced Remodelling of the Major Histocompatibility Complex Class I Peptide Repertoire” (Frontiers in Immunology, 2021).

Assays:
HLA-B*57:01 [1] = target: T1, HLA-B*57:01 (Homo sapiens, UniProt P01889, D201E/D98Y/E176V/E187L/E204Q/E69M/E70A/G107R/I90N/K202T/L105A/L119I/N104I/N87E/Q89R/Q94S/R106L/R155S/R180L/R86G/S101N/S121V/S35A/S48A/T118I/V36M/Y140S/Y91M); test: LC-MRM-MS quantitation of HLA ligands and co-purified abacavir from abacavir treated C1R.B*57:01 cells; type: cell-based; conditions: for Abacavir dependence: LC-MRM-MS detection, classification of the peptide based on abacavir dependency; for Linear regression slope: linear regression of LC-MRM-MS peptide abundance over abacavir treatment time; for Category of abacavir impact on peptide abundance in the immunopeptidome: C1R.B*57:01, 35 µM abacavir 0-16 h or constant, linear regression of normalised abundance, three replicates
HLA-B*57:01 [2] = target: T1, HLA-B*57:01; parameters: method as in Illing et al., Nature 2012; conditions: ref Illing et al., Nature 2012, cited from earlier work; for HLA-B*57:01 previous observation by LC-MS/MS, Abacavir treated: abacavir treated cells; for HLA-B*57:01 previous observation by LC-MS/MS, Untreated: untreated cells

For LSSDINVRSW, the Abacavir dependence (HLA-B*57:01 [1]) is listed as “Minimal”, the Linear regression slope (HLA-B*57:01 [1]) is listed as -0.0197 and the “HLA-B*57:01 previous observation by LC-MS/MS, Abacavir treated” value (HLA-B*57:01 [2]) is listed as “+ (+ (< 5% FDR))”. For the same sequence, the “HLA-B*57:01 previous observation by LC-MS/MS, Untreated” value (HLA-B*57:01 [2]) was “+ (+ (< 5% FDR))”.
In the case of KTFTTQETI [HLA-B*57:01 ligand], the “Category of abacavir impact on peptide abundance in the immunopeptidome” value (shortened to “Category of abacavir impact”) (HLA-B*57:01 [1]) is given as “abacavir facilitated (abacavir facilitated (slope > 0.02, abundance > 0 at t = 0 in at least two of three replicates))”, the “HLA-B*57:01 previous observation by LC-MS/MS, Abacavir treated” value (HLA-B*57:01 [2]) is given as “+ (+ (< 5% FDR))” and the “HLA-B*57:01 previous observation by LC-MS/MS, Untreated” value (HLA-B*57:01 [2]) is given as “+ (+ (< 5% FDR))”.
For LSQEQLRQW, the Abacavir dependence (HLA-B*57:01 [1]) is listed as “Minimal”, the Linear regression slope (HLA-B*57:01 [1]) is listed as 0.0083 and the “HLA-B*57:01 previous observation by LC-MS/MS, Abacavir treated” value (HLA-B*57:01 [2]) is listed as “+ (+ (< 5% FDR))”. For the same sequence, the “HLA-B*57:01 previous observation by LC-MS/MS, Untreated” value (HLA-B*57:01 [2]) was “+ (+ (< 5% FDR))”.
For “KTFKDVGNLL [non-labelled HLA-B*57:01 ligand]”, the “Category of abacavir impact” value (HLA-B*57:01 [1]) was “Facilitated”, the Abacavir dependence (HLA-B*57:01 [1]) was “Facilitated” and the Linear regression slope (HLA-B*57:01 [1]) was 0.0314. The “HLA-B*57:01 previous observation by LC-MS/MS, Abacavir treated” value (HLA-B*57:01 [2]) was “+ (+ (< 5% FDR))” and the “HLA-B*57:01 previous observation by LC-MS/MS, Untreated” value (HLA-B*57:01 [2]) was “+ (+ (< 5% FDR))”.
In the case of KSIFVFTHV, the Abacavir dependence (HLA-B*57:01 [1]) is listed as “Dependent”, the Linear regression slope (HLA-B*57:01 [1]) is listed as 0.0498 and the “HLA-B*57:01 previous observation by LC-MS/MS, Abacavir treated” value (HLA-B*57:01 [2]) is listed as “+ (+ (< 5% FDR))”.
In the case of GSFGKVFLV, the Abacavir dependence (HLA-B*57:01 [1]) is listed as “Dependent”, the Linear regression slope (HLA-B*57:01 [1]) is listed as 0.0515 and the “HLA-B*57:01 previous observation by LC-MS/MS, Abacavir treated” value (HLA-B*57:01 [2]) is listed as “+ (+ (< 5% FDR))”.
In the case of VSVKDIQAHL, the Abacavir dependence (HLA-B*57:01 [1]) is given as “Dependent”, the Linear regression slope (HLA-B*57:01 [1]) is given as 0.0241 and the “HLA-B*57:01 previous observation by LC-MS/MS, Abacavir treated” value (HLA-B*57:01 [2]) is given as “+ (+ (< 5% FDR))”.
For ILDPHVVLL, the Linear regression slope (HLA-B*57:01 [1]) is listed as 0.0062, the “HLA-B*57:01 previous observation by LC-MS/MS, Abacavir treated” value (HLA-B*57:01 [2]) is listed as “+ (+ (< 5% FDR))” and the “HLA-B*57:01 previous observation by LC-MS/MS, Untreated” value (HLA-B*57:01 [2]) is listed as “+ (+ (< 5% FDR))”.
For ITNADSATRLL, the Abacavir dependence (HLA-B*57:01 [1]) is listed as “Inhibited”, the Linear regression slope (HLA-B*57:01 [1]) is listed as -0.0254 and the “HLA-B*57:01 previous observation by LC-MS/MS, Untreated” value (HLA-B*57:01 [2]) is listed as “+ (+ (< 5% FDR))”.
In the case of HSMSDPGVSY, the Abacavir dependence (HLA-B*57:01 [1]) is given as “Minimal”, the Linear regression slope (HLA-B*57:01 [1]) is given as 0.0044 and the “HLA-B*57:01 previous observation by LC-MS/MS, Abacavir treated” value (HLA-B*57:01 [2]) is given as “+ (+ (< 5% FDR))”. The “HLA-B*57:01 previous observation by LC-MS/MS, Untreated” value (HLA-B*57:01 [2]) was “+ (+ (< 5% FDR))”.
For VSAKEKYYVW, the Abacavir dependence (HLA-B*57:01 [1]) is listed as “Minimal”, the Linear regression slope (HLA-B*57:01 [1]) is listed as -0.0125 and the “HLA-B*57:01 previous observation by LC-MS/MS, Abacavir treated” value (HLA-B*57:01 [2]) is listed as “+ (+ (< 5% FDR))”. The “HLA-B*57:01 previous observation by LC-MS/MS, Untreated” value (HLA-B*57:01 [2]) was “+ (+ (< 5% FDR))”.
For KTLEGEFSV, the Abacavir dependence (HLA-B*57:01 [1]) is listed as “Dependent”, the Linear regression slope (HLA-B*57:01 [1]) is listed as 0.0463 and the “HLA-B*57:01 previous observation by LC-MS/MS, Abacavir treated” value (HLA-B*57:01 [2]) is listed as “+ (+ (< 5% FDR))”.
In the case of MTAGVDGHSW, the Abacavir dependence (HLA-B*57:01 [1]) is given as “Minimal”, the Linear regression slope (HLA-B*57:01 [1]) is given as -0.0056 and the “HLA-B*57:01 previous observation by LC-MS/MS, Abacavir treated” value (HLA-B*57:01 [2]) is given as “+ (+ (< 5% FDR))”. For the same sequence, the “HLA-B*57:01 previous observation by LC-MS/MS, Untreated” value (HLA-B*57:01 [2]) was “+ (+ (< 5% FDR))”.
In the case of ITKTVVENI [HLA-B*57:01 ligand], the “Category of abacavir impact” value (HLA-B*57:01 [1]) is reported as “Minimal”, the Abacavir dependence (HLA-B*57:01 [1]) is reported as “Minimal” and the Linear regression slope (HLA-B*57:01 [1]) is reported as -0.0036. The “HLA-B*57:01 previous observation by LC-MS/MS, Abacavir treated” value (HLA-B*57:01 [2]) was “+ (+ (< 5% FDR))” and the “HLA-B*57:01 previous observation by LC-MS/MS, Untreated” value (HLA-B*57:01 [2]) was “+ (+ (< 5% FDR))”.
In the case of KIADFGWSV, the Abacavir dependence (HLA-B*57:01 [1]) is listed as “Dependent”, the Linear regression slope (HLA-B*57:01 [1]) is listed as 0.0283 and the “HLA-B*57:01 previous observation by LC-MS/MS, Abacavir treated” value (HLA-B*57:01 [2]) is listed as “+ (+ (< 5% FDR))”.
With “KTIKLWNTL [HLA-B*57:01 ligand derived from RACK1]” the “Category of abacavir impact” value (HLA-B*57:01 [1]) was “abacavir facilitated (abacavir facilitated (slope > 0.02, abundance > 0 at t = 0 in at least two of three replicates))”, the Abacavir dependence (HLA-B*57:01 [1]) was “Facilitated” and the Linear regression slope (HLA-B*57:01 [1]) was 0.0224. For the same sequence, the “HLA-B*57:01 previous observation by LC-MS/MS, Abacavir treated” value (HLA-B*57:01 [2]) was “+ (+ (< 5% FDR))” and the “HLA-B*57:01 previous observation by LC-MS/MS, Untreated” value (HLA-B*57:01 [2]) was “+ (+ (< 5% FDR))”.
For IFDSKVTEI, the Linear regression slope (HLA-B*57:01 [1]) is listed as -0.0096, the “HLA-B*57:01 previous observation by LC-MS/MS, Abacavir treated” value (HLA-B*57:01 [2]) is listed as “+ (+ (< 5% FDR))” and the “HLA-B*57:01 previous observation by LC-MS/MS, Untreated” value (HLA-B*57:01 [2]) is listed as “+ (+ (< 5% FDR))”.
For RTLLEDGTFKV, the Abacavir dependence (HLA-B*57:01 [1]) is given as “Dependent”, the Linear regression slope (HLA-B*57:01 [1]) is given as 0.0443 and the “HLA-B*57:01 previous observation by LC-MS/MS, Abacavir treated” value (HLA-B*57:01 [2]) is given as “+ (+ (< 5% FDR))”.
For ISIHVGQAGVQI, the Abacavir dependence (HLA-B*57:01 [1]) is listed as “Dependent”, the Linear regression slope (HLA-B*57:01 [1]) is listed as 0.0259 and the “HLA-B*57:01 previous observation by LC-MS/MS, Abacavir treated” value (HLA-B*57:01 [2]) is listed as “+ (+ (< 5% FDR))”.
